Measurements reported in the NIST ThermoML archive (doi:10.1016/j.fluid.2018.10.024).

Test: xn = mol fraction of the nth substance listed
Conditions: 101 kPa, Liquid; for viscosity: Capillary tube (Ostwald / Ubbelohde) method; for mass density: Vibrating tube method

ClC(Cl)Cl [trichloromethane] + CC(C)=O
Conditions	mass density, 298.15 K [kg/m3]	mass density, 303.15 K [kg/m3]	mass density, 308.15 K [kg/m3]	mass density, 313.15 K [kg/m3]	viscosity, 298.15 K [mPa·s]	viscosity, 303.15 K [mPa·s]	viscosity, 308.15 K [mPa·s]	viscosity, 313.15 K [mPa·s]
x2 = 0	1478.75	1469.16	1460.01	1450.39	0.5916	0.558	0.5333	0.5072
x2 = 0.0997	1419.64	1409.35	1402.33	1393.77	0.589	0.5571	0.5329	0.5067
x2 = 0.1996	1357.58	1347.6	1341.01	1332.05	0.5814	0.5571	0.5303	0.4994
x2 = 0.2993	1293.35	1284.12	1276.96	1268.04	0.5684	0.5373	0.5185	0.4876
x2 = 0.3999	1226.35	1217.87	1210.11	1201.58	0.5412	0.5156	0.4968	0.468
x2 = 0.4979	1159.27	1151.19	1143.34	–	0.5126	0.4913	0.4693	0.4429
x2 = 0.599	1088.31	1080.44	1073.05	–	0.4741	0.4551	0.4396	0.4149
x2 = 0.6993	1016.22	1008.68	1001.9	–	0.435	0.4188	0.4028	0.383
x2 = 0.8008	941.27	934.43	927.99	–	0.3975	0.3802	0.3593	0.3453
x2 = 0.9006	864.78	858.83	852.47	–	0.3443	0.338	0.3254	0.3056
